{"source": "patent US20050054653A1", "about": "“Pteridine derivatives, method of producing them and their application” (Faustus Forschungs Cie. Translational Cancer Research GmbH, priority 2002, published 2005)", "format_in_all_cases": "cell-based", "key": {"[1]": {"system": "human cell line LXFL529L", "experiment": "Proliferation assay (sulforhodamin B assay), growth inhibition of tumor cells", "settings": "LXFL 529L", "description": "The inhibition of the growth of tumor cells due to the compounds according to the invention was determined on the human cell line LXFL529L. As a proliferation assay the sulforhodamin B assay as described by Skehan et al. (J. Natl. Cancer Inst. 82:1107-1112 (1990)) was used."}, "[2]": {"system": "NCI-H460", "experiment": "Growth inhibition of human tumor cell line NCI-H460", "settings": "NCI-H460 bronchial carcinoma", "source_text": "(§1) FIG. 1 is a representation of the IC50 values of the growth inhibition when using the compounds E288, E289 and E499 on the human tumor cell lines COLO 205 and NCI-H460.\n(§2) Further in-vitro results of the compounds according to the invention E288 (6-chloro-2-piperazino-4,7-dithiazolidino-pteridine) and E289 (6-methoxy-2-piperazino-4,7-dithiazolidino-pteridine) are summarized in the following in comparison to E499 (6-chloro-2-piperazino-4,7-dipyrrolidino-pteridine) (all IC50 figures are described in [μM]).\n(§3) This includes the human cell lines A431 ([…]), OVCAR-3 (ovarian carcinoma), BT-549 and MCF-7 (mammary carcinoma), SK-MEL-28 and SK-MEL-5 (melanoma), SW 620 and HCT-15 (colon), A549 (lung carcinoma) as well as the glioblastoma cell line C6 of the rat."}, "[3]": {"system": "COLO 205", "experiment": "Growth inhibition of human tumor cell line COLO 205", "settings": "COLO 205 colon carcinoma", "source_text": "as §1, §2, §3"}}, "data": [{"smiles": "CSc1nc2c(N3CCCC3)nc(N3CCNCC3)nc2nc1N1CCCC1", "note": "[E 294, 6-Methylthio-2-Piperazino-4,7-Dipyrrolidino-Pteridine]", "values": [{"measurement": "IC50", "setting": "[1]", "result": "3 ± 0.3", "unit": "µM"}]}, {"smiles": "COc1nc2c(N3CCSC3)nc(N3CCNCC3)nc2nc1N1CCSC1", "note": "[E289, 6-Methoxy-2-Piperazino-4,7-Dithiazolidino-Pteridine]", "values": [{"measurement": "IC50", "setting": "[2]", "result": 13.9, "unit": "µM"}, {"measurement": "IC50", "setting": "[3]", "result": 9.64, "unit": "µM"}]}, {"smiles": "COc1nc2c(N3CCCC3)nc(N3CCNCC3)nc2nc1N1CCCC1", "note": "[E 293, 6-Methoxy-2-Piperazino-4,7-Dipyrrolidino-Pteridine]", "values": [{"measurement": "IC50", "setting": "[1]", "result": "3.4 ± 1", "unit": "µM"}]}, {"smiles": "Clc1nc2c(N3CCSC3)nc(N3CCNCC3)nc2nc1N1CCSC1", "note": "[E288, 6-Chloro-2-Piperazino-4,7-Dithiazolidino-Pteridine]", "values": [{"measurement": "IC50", "setting": "[2]", "result": 18.2, "unit": "µM"}, {"measurement": "IC50", "setting": "[3]", "result": 6.19, "unit": "µM"}]}, {"smiles": "Clc1nc2c(N3CCCC3)nc(N3CCNCC3)nc2nc1N1CCCC1", "note": "[E499, 6-Chloro-2-Piperazino-4,7-Dipyrrolidino-Pteridine]", "values": [{"measurement": "IC50", "setting": "[2]; Homo sapiens", "result": 31.6, "unit": "µM"}, {"measurement": "IC50", "setting": "[3]; Homo sapiens", "result": 9.75, "unit": "µM"}]}]}
